From ChEMBL document CHEMBL4765365, “Design, synthesis and antitumour evaluation of pyrrolo[1,2-f]-phenanthridine and dibenzo[f,h]pyrrolo[1,2-b]isoquinoline derivatives” (Eur J Med Chem, 2020)

Columns and labels:
CCRF-CEM = assay: Cytotoxicity against human CCRF-CEM cells assessed as reduction in cell viability incubated for 72 hrs by XTT assay; format: functional, cell-based
HCT-116 [1] = assay: Induction of cell cycle arrest in human HCT-116 cells assessed as G1 phase at 0.375 uM measured at 0 hrs by PI staining based flow cytometry analysis (reference value: 52 +/- 5.1 %); format: functional
HCT-116 [2] = assay: Induction of cell cycle arrest in human HCT-116 cells assessed as G1 phase at 0.375 uM incubated for 24 hrs by PI staining based flow cytometry analysis (reference value: 55 +/- 9.8 %); format: functional
HCT-116 [3] = assay: Induction of cell cycle arrest in human HCT-116 cells assessed as G0 phase at 0.75 uM measured at 0 hrs by PI staining based flow cytometry analysis (reference value: 0.7 +/- 0.2 %); format: functional
HCT-116 [4] = assay: Induction of cell cycle arrest in human HCT-116 cells assessed as G2/M phase at 0.75 uM measured at 0 hrs by PI staining based flow cytometry analysis (reference value: 28.9 +/- 1.4 %); format: functional
HCT-116 [5] = assay: Induction of cell cycle arrest in human HCT-116 cells assessed as G0 phase at 0.75 uM incubated for 12 hrs by PI staining based flow cytometry analysis (reference value: 2.2 +/- 1.7 %); format: functional
HCT-116 [6] = assay: Induction of cell cycle arrest in human HCT-116 cells assessed as G1 phase at 0.75 uM incubated for 36 hrs by PI staining based flow cytometry analysis (reference value: 57.4 +/- 1.3 %); format: functional
HCT-116 [7] = assay: Induction of cell cycle arrest in human HCT-116 cells assessed as G2/M phase at 0.75 uM incubated for 36 hrs by PI staining based flow cytometry analysis (reference value: 23.6 +/- 1 %); format: functional
HCT-116 [8] = assay: Induction of cell cycle arrest in human HCT-116 cells assessed as G0 phase at 1.5 uM measured at 0 hrs by PI staining based flow cytometry analysis (reference value: 0.7 +/- 0.2 %); format: functional
HCT-116 [9] = assay: Induction of cell cycle arrest in human HCT-116 cells assessed as G1 phase at 1.5 uM incubated for 24 hrs by PI staining based flow cytometry analysis (reference value: 55 +/- 9.8 %); format: functional
HCT-116 [10] = assay: Induction of cell cycle arrest in human HCT-116 cells assessed as G2/M phase at 1.5 uM incubated for 24 hrs by PI staining based flow cytometry analysis (reference value: 9.3 +/- 0.8 %); format: functional
HCT-116 [11] = assay: Induction of cell cycle arrest in human HCT-116 cells assessed as G1 phase at 1.5 uM incubated for 36 hrs by PI staining based flow cytometry analysis (reference value: 57.4 +/- 1.3 %); format: functional
NCI-H460 [12] = assay: Induction of cell cycle arrest in human NCI-H460 cells assessed as G0 phase at 0.75 uM measured at 0 hrs by PI staining based flow cytometry analysis (reference value: 1.3 +/- 0.9 %); format: functional
NCI-H460 [13] = assay: Induction of cell cycle arrest in human NCI-H460 cells assessed as G1 phase at 0.75 uM measured at 0 hrs by PI staining based flow cytometry analysis (reference value: 53.4 +/- 4.8 %); format: functional
NCI-H460 [14] = assay: Induction of cell cycle arrest in human NCI-H460 cells assessed as G0 phase at 0.75 uM incubated for 24 hrs by PI staining based flow cytometry analysis (reference value: 1.6 +/- 0.6 %); format: functional
NCI-H460 [15] = assay: Induction of cell cycle arrest in human NCI-H460 cells assessed as G1 phase at 0.75 uM incubated for 24 hrs by PI staining based flow cytometry analysis (reference value: 56.8 +/- 7.6 %); format: functional
NCI-H460 [16] = assay: Induction of cell cycle arrest in human NCI-H460 cells assessed as G0 phase at 0.75 uM incubated for 36 hrs by PI staining based flow cytometry analysis (reference value: 2.8 +/- 0.7 %); format: functional
NCI-H460 [17] = assay: Induction of cell cycle arrest in human NCI-H460 cells assessed as S phase at 0.75 uM incubated for 36 hrs by PI staining based flow cytometry analysis (reference value: 7.6 +/- 3.9 %); format: functional
NCI-H460 [18] = assay: Induction of cell cycle arrest in human NCI-H460 cells assessed as G2/M phase at 0.75 uM incubated for 36 hrs by PI staining based flow cytometry analysis (reference value: 25 +/- 1.2 %); format: functional
NCI-H460 [19] = assay: Induction of cell cycle arrest in human NCI-H460 cells assessed as G2/M phase at 1.5 uM measured at 0 hrs by PI staining based flow cytometry analysis (reference value: 25.2 +/- 4 %); format: functional
NCI-H460 [20] = assay: Induction of cell cycle arrest in human NCI-H460 cells assessed as G1 phase at 1.5 uM incubated for 12 hrs by PI staining based flow cytometry analysis (reference value: 66 +/- 10 %); format: functional
NCI-H460 [21] = assay: Induction of cell cycle arrest in human NCI-H460 cells assessed as G2/M phase at 1.5 uM incubated for 12 hrs by PI staining based flow cytometry analysis (reference value: 22.9 +/- 6.8 %); format: functional
NCI-H460 [22] = assay: Induction of cell cycle arrest in human NCI-H460 cells assessed as G1 phase at 1.5 uM incubated for 24 hrs by PI staining based flow cytometry analysis (reference value: 56.8 +/- 7.6 %); format: functional
NCI-H460 [23] = assay: Induction of cell cycle arrest in human NCI-H460 cells assessed as G2/M phase at 1.5 uM incubated for 24 hrs by PI staining based flow cytometry analysis (reference value: 21 +/- 6.7 %); format: functional
NCI-H460 [24] = assay: Induction of cell cycle arrest in human NCI-H460 cells assessed as G0 phase at 1.5 uM incubated for 36 hrs by PI staining based flow cytometry analysis (reference value: 2.8 +/- 0.7 %); format: functional
NCI-H460 [25] = assay: Induction of cell cycle arrest in human NCI-H460 cells assessed as G0 phase at 3 uM incubated for 12 hrs by PI staining based flow cytometry analysis (reference value: 2.9 +/- 2.4 %); format: functional
NCI-H460 [26] = assay: Induction of apoptosis in human NCI-H460 cells assessed as viable cells at 1.5 uM incubated for 48 hrs by annexin V-FITC and PI staining based flow cytometry analysis (reference value: 90.1 %); format: functional; settings: read-out: Activity
NCI-H460 [27] = assay: Induction of apoptosis in human NCI-H460 cells assessed as late apoptotic cells at 1.5 uM incubated for 48 hrs by annexin V-FITC and PI staining based flow cytometry analysis (reference value: 7.3 %); format: functional
NCI-H460 [28] = assay: Induction of apoptosis in human NCI-H460 cells assessed as late apoptotic cells at 6 uM incubated for 48 hrs by annexin V-FITC and PI staining based flow cytometry analysis (reference value: 7.3 %); format: functional
NCI-H460 [29] = assay: Induction of apoptosis in human NCI-H460 cells assessed as necrotic cells at 6 uM incubated for 48 hrs by annexin V-FITC and PI staining based flow cytometry analysis (reference value: 0.7 %); format: functional
HCT-116 [30] = assay: Antitumor activity against human HCT-116 cells xenografted in nude mouse assessed as reduction in tumor size at 30 mg/kg, iv administered for 5 days and repeated cycle for 2 days interval and measured on day 24; format: functional; settings: HCT-116, iv, 576 h, time 24 day, read-out: TGI

Compound: OCc1cn2c3ccccc3c3ccccc3c2c1CO
- IC50 (CCRF-CEM): 0.37 µM
- Activity (HCT-116 [1]): 52.9%
- Activity (HCT-116 [2]): 46.7%
- Activity (HCT-116 [3]): 0.8%
- Activity (HCT-116 [4]): 28.5%
- Activity (HCT-116 [5]): 1.7%
- Activity (HCT-116 [6]): 65.1%
- Activity (HCT-116 [7]): 17.4%
- Activity (HCT-116 [8]): 2.2%
- Activity (HCT-116 [9]): 54.5%
- Activity (HCT-116 [10]): 30.3%
- Activity (HCT-116 [11]): 52.3%
- Activity (NCI-H460 [12]): 1.8%
- Activity (NCI-H460 [13]): 54.9%
- Activity (NCI-H460 [14]): 1.8%
- Activity (NCI-H460 [15]): 54%
- Activity (NCI-H460 [16]): 1.9%
- Activity (NCI-H460 [17]): 6.3%
- Activity (NCI-H460 [18]): 20.9%
- Activity (NCI-H460 [19]): 23.9%
- Activity (NCI-H460 [20]): 50.7%
- Activity (NCI-H460 [21]): 25.1%
- Activity (NCI-H460 [22]): 56.3%
- Activity (NCI-H460 [23]): 25.4%
- Activity (NCI-H460 [24]): 3.3%
- Activity (NCI-H460 [25]): 2.5%
- viability at 1.5 µM (NCI-H460 [26]): 82.2%
- Activity (NCI-H460 [27]): 13.7%
- Activity (NCI-H460 [28]): 55.8%
- Activity (NCI-H460 [29]): 1.6%
- inhibition in vivo at 30 mg/kg (HCT-116 [30]): 72%
